# According to patent US20250129021A1, “SMALL MOLECULE PROTEIN SYNTHESIS MODULATORS” (Interdict Bio, Inc., priority 2023, published 2025):
# Counter-ions that a name gives are not always drawn.
# Experiments:
# Type in all cases: biochemical
# Details in all cases: HeLa S3 lysate, sfGFP/mCherry ratio, 2 hrs at 30° C.
# MYC = assay: In vitro transcription-translation (IVTT) assay, MYC reporter
# Method in brief: (§1)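 Reporter: mCherry, P2A, then 3×FLAG-target peptide-sfGFP fusion, IRES-initiated; HeLa S3 lysate IVTT; cpd dilutions 30 μM−0.1 μM half-log in 100% DMSO (dilution-plate conc); DNA added last; 2 h, 30° C; PBS quench.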
# CCND1 = assay: In vitro transcription-translation (IVTT) assay, CCND1 reporter
# Method in brief: as §1
# MCL-1 = assay: In vitro transcription-translation (IVTT) assay, MCL-1 reporter
# Method in brief: as §1
# ALK = assay: In vitro transcription-translation (IVTT) assay, ALK reporter
# Description: (§2) All reporter constructs have been cloned into the pT7CFE1-CHis plasmid (ThermoFisher #88860) using Gibson assembly procedures (NEB #E2611L). The parental pT7CFE1-CHis plasmid contains an EMCV IRES at the 5′UTR for translation initiation, a multiple-cloning site (MCS) for gene insertion, an optional C-terminal His-epitope tag, and polyA sequence in the 3′UTR to regulate mRNA stability. All reporters are designed to be inserted at the MCS to include a red fluorescent protein (mCherry), P2A self-cleaving peptide which releases the preceding mCherry protein product, and a fusion open reading frame containing a 3×FLAG epitope, a peptide sequence of interest (TEST), and green fluorescent protein (sfGFP).
# (§3) Construct Plasmid Preparation: All plasmids are isolated from MACH1 cells (ThermoFisher) grown overnight in ampicillin-containing luria broth, and purified using ZymoPure Express Plasmid Midiprep Kit (Zymo Research). Constructs are sequenced verified and diluted to a working concentration of 110 ng/μL.
# (§4) HeLa S3 Lysate Preparation: HeLa S3 cell pellets are acquired from Ipracell/Ipratech (Belgium) and shipped as 4 mL frozen cell pellets on dry ice for storage at −80° C. until use. The procedure for lysate preparation is as follows. Prepare 1× Lysis Buffer, cold and stored on ice:
# (§5) Each preparation takes 8 cell pellets (4 ml packed volume each, approximately 1.0×10^9 cells per pellet). Thaw cell pellets from −80° C. on ice for 90 mins. Lay pellets horizontally on top of the ice and rotate every 30 mins to ensure even thawing. Once thawed, add 4 mL of cold lysis buffer to each pellet, and using a serological pipet, gently pipet up and down to break up clumps. Incubate resuspended cells in ice for an additional 30 mins (plunged into ice). During 30 min incubation, rinse and RNase-zap (Ambion) glass dounces (use loose pestle “A”), gently dry and place on ice until needed. Prepare RNase-free Eppendorf tubes for spinning and for batch storage. Add batch labels to 1.5-1.7 mL RNase-free microcentrifuge tubes (labeling scheme below). Each batch will have an extra 1.5-1.7 mL RNase-free microcentrifuge tube for 40 μL of lysate, label the top of this tube (labeling scheme below). After 30 min incubation, transfer all 8 mL of cell pellet to dounce. Cell lysis is complete after douncing 100 times. Aliquot cell lysis into 1.5-1.7 mL temporary-microcentrifuge tubes. Place tubes in centrifuge with “fins” out, and spin at 1,200×g for 5 mins. After the first spin use a 1 mL pipet to resuspend each tube and repeat spin. This acts as an additional lysis step, is more vigorous and increases lysate yield. During second spin get liquid N2 and a fresh conical tube on ice. After spin is complete, transfer supernatant (lysate) from microcentrifuge tubes into the 50 mL conical tube and keep on ice. Repeat steps 10-14 for all other cell pellets until completed. Once all cell lysate has been transferred to the 50 mL conical tube pipet to mix so the solution is homogenous. Transfer 1 mL of lysate into batch-labeled microcentrifuge tubes and flash freeze in liquid nitrogen. Be sure to pipet up and down to mix throughout transfer step. Place all tubes in the […] for long-term storage.
# (§6) In vitro transcription-translation assay setup: Each assay includes a master mix containing lysate and shared components, a 96-well plate containing compound titrations for testing, a 96-well DNA plate with reporter constructs to be tested, 96-well skirted PCR plates, and 96-well flat-bottom, black, fluorescent assay plates. […]
# KRAS G12D = assay: In vitro transcription-translation (IVTT) assay, KRAS G12D reporter
# Description: as §2, §3, §4, §5, §6
Compound,IC50 (MYC) [µM],IC50 (CCND1) [µM],IC50 (MCL-1) [µM],IC50 (ALK) [µM],IC50 (KRAS G12D) [µM]
"COc1ccc(C[C@H]2NC[C@H](O)[C@H]2OC(=O)NCCCO)cc1 [V187585, (2R,3S,4S)-4-hydroxy-2-[(4-methoxyphenyl)methyl]pyrrolidin-3-yl N-(3-hydroxypropyl)carbamate]",< 10,< 10,< 10,< 10,–
"COc1ccc(C[C@H]2NC[C@H](O)[C@H]2OC(=O)NCCN2CC(O)(C#N)C2)cc1 [V187567, (2R,3S,4S)-4-hydroxy-2-[(4-methoxyphenyl)methyl]pyrrolidin-3-yl N-[2-(3-cyano-3-hydroxyazetidin-1-yl)ethyl]carbamate]",10 to 20,20 to 30,–,–,20 to 30
"COc1ccc(C[C@H]2NC[C@H](O)[C@H]2OC(=O)NCCN2CC(C)(O)C2)cc1 [V187580, (2R,3S,4S)-4-hydroxy-2-[(4-methoxyphenyl)methyl]pyrrolidin-3-yl N-[2-(3-hydroxy-3-methylazetidin-1-yl)ethyl]carbamate; trifluoroacetic acid]",> 30,–,–,10 to 20,–
"COc1ccc(C[C@H]2NC[C@H](O)[C@H]2OC(=O)NCCOCCN2CCNCC2)cc1 [V187626, (2R,3S,4S)-4-hydroxy-2-[(4-methoxyphenyl)methyl]pyrrolidin-3-yl N-{2-[2-(piperazin-1-yl)ethoxy]ethyl}carbamate; trifluoroacetic acid]",> 30,–,–,20 to 30,–
"COc1ccc(C[C@H]2NC[C@H](O)[C@H]2OC(=O)NCc2nn[nH]n2)cc1 [V187534, (2R,3S,4S)-4-hydroxy-2-[(4-methoxyphenyl)methyl]pyrrolidin-3-yl N-(2H-1,2,3,4-tetrazol-5-ylmethyl) carbamate; trifluoroacetic acid]",10 to 20,–,–,< 10,–
"COc1ccc(C[C@H]2NC[C@H](O)[C@H]2OC(=O)Nc2nc3ccccc3[nH]2)cc1 [V187754, (2R,3S,4S)-4-hydroxy-2-[(4-methoxyphenyl)methyl]pyrrolidin-3-yl N-(1H-1,3-benzodiazol-2-yl)carbamate]",–,–,–,< 10,–
"COc1ccc(C[C@H]2NC[C@H](O)[C@H]2OC(=O)NCCN2C[C@@H](NC(C)=O)[C@H](NC(C)=O)C2)cc1 [V187588, (2R,3S,4S)-4-hydroxy-2-[(4-methoxyphenyl)methyl]pyrrolidin-3-yl N-{2-[(3R,4R)-3,4-diacetamidopyrrolidin-1-yl]ethyl}carbamate; trifluoroacetic acid]",> 30,–,–,> 30,–
"COc1ccc(C[C@H]2NC[C@H](O)[C@H]2OC(=O)Nc2nnc(CN(Cc3ccccc3)Cc3ccccc3)s2)cc1 [V187551, (2R,3S,4S)-4-hydroxy-2-[(4-methoxyphenyl)methyl]pyrrolidin-3-yl N-{5-[(dibenzylamino)methyl]-1,3,4-thiadiazol-2-yl}carbamate]",> 30,–,–,–,> 30
"CCN(CC)CCNC(=O)O[C@@H]1[C@@H](O)CN[C@@H]1Cc1ccc(OC)cc1 [V187384, (2R,3S,4S)-4-hydroxy-2-[(4-methoxyphenyl)methyl]pyrrolidin-3-yl N-[2-(diethylamino)ethyl]carbamate]",> 30,–,–,10 to 20,–
"COc1ccc(C[C@H]2NC[C@H](O)[C@H]2OC(=O)NCCNc2c(NCc3ccccc3)c(=O)c2=O)cc1 [V187519, (2R,3S,4S)-4-hydroxy-2-[(4-methoxyphenyl)methyl]pyrrolidin-3-yl N-(2-{[2-(benzylamino)-3,4-dioxocyclobut-1-en-1-yl]amino}ethyl)carbamate; trifluoroacetic acid]",–,–,–,–,> 30
"COc1ccc(C[C@H]2NC[C@H](O)[C@H]2OC(=O)NCCN)cc1 [V187575, (2R,3S,4S)-4-hydroxy-2-[(4-methoxyphenyl)methyl]pyrrolidin-3-yl N-(2-aminoethyl)carbamate; trifluoroacetic acid]",20 to 30,–,–,< 10,–
"COc1ccc(C[C@H]2NC[C@H](O)[C@H]2OC(=O)Nc2nc3ccccc3s2)cc1 [V187753, (2R,3S,4S)-4-hydroxy-2-[(4-methoxyphenyl)methyl]pyrrolidin-3-yl N-(1,3-benzothiazol-2-yl)carbamate; trifluoroacetic acid]",> 30,–,–,> 30,–
"COc1ccc(C[C@H]2NC[C@H](O)[C@H]2OC(=O)NCCNCCn2ccnc2)cc1 [V187637, (2R,3S,4S)-4-hydroxy-2-[(4-methoxyphenyl)methyl]pyrrolidin-3-yl N-(2-{[2-(imidazol-1-yl)ethyl]amino}ethyl)carbamate]",10 to 20,–,–,–,20 to 30
"COc1ccc(C[C@H]2NC[C@H](O)[C@H]2OC(=O)NCCN2CC(O)(CN)C2)cc1 [V187581, (2R,3S,4S)-4-hydroxy-2-[(4-methoxyphenyl)methyl]pyrrolidin-3-yl N-{2-[3-(aminomethyl)-3-hydroxyazetidin-1-yl]ethyl}carbamate; trifluoroacetic acid]",20 to 30,–,–,–,> 30
"COc1ccc(C[C@H]2NC[C@H](O)[C@H]2OC(=O)NCCN2CC[C@H](O)C2)cc1 [V187576, (2R,3S,4S)-4-hydroxy-2-[(4-methoxyphenyl)methyl]pyrrolidin-3-yl N-{2-[(3S)-3-hydroxypyrrolidin-1-yl]ethyl}carbamate trifluoroacetic acid salt]",< 10,–,–,10 to 20,–
"COc1ccc(C[C@H]2NC[C@H](O)[C@H]2OC(=O)NCc2cn(-c3cc4ccc(O)cc4oc3=O)nn2)cc1 [V187692, (2R,3S,4S)-4-hydroxy-2-[(4-methoxyphenyl)methyl]pyrrolidin-3-yl N-{[1-(7-hydroxy-2-oxochromen-3-yl)-1,2,3-triazol-4-yl]methyl}carbamate; trifluoroacetic acid]",> 30,–,–,> 30,–
"COc1ccc(C[C@H]2NC[C@H](O)[C@H]2OC(=O)Nc2ncc[nH]2)cc1 [V187755, (2R,3S,4S)-4-hydroxy-2-[(4-methoxyphenyl)methyl]pyrrolidin-3-yl N-(1H-imidazol-2-yl)carbamate]",< 10,< 10,–,< 10,–
"COc1ccc(C[C@H]2NC[C@H](O)[C@H]2OC(=O)Nc2nccs2)cc1 [V187752, (2R,3S,4S)-4-hydroxy-2-[(4-methoxyphenyl)methyl]pyrrolidin-3-yl N-(1,3-thiazol-2-yl)carbamate Hydrochloride]",10 to 20,–,–,< 10,–
"CNC(=O)O[C@@H]1[C@@H](O)CN[C@@H]1Cc1ccc(OC)cc1 [V187583, (2R,3S,4S)-4-hydroxy-2-[(4-methoxyphenyl)methyl]pyrrolidin-3-yl N-methylcarbamate; trifluoroacetic acid]",–,–,–,< 10,–
"COc1ccc(C[C@H]2NC[C@H](O)[C@H]2OC(=O)NCCNCCOC(C)C)cc1 [V187640, (2R,3S,4S)-4-hydroxy-2-[(4-methoxyphenyl)methyl]pyrrolidin-3-yl N-{2-[(2-isopropoxyethyl)amino]ethyl}carbamate; trifluoroacetic acid]",> 30,–,–,–,> 30
"COc1ccc(C[C@H]2NC[C@H](O)[C@H]2OC(=O)NCCN2CC(O)C2)cc1 [V187579, (2R,3S,4S)-4-hydroxy-2-[(4-methoxyphenyl)methyl]pyrrolidin-3-yl N-[2-(3-hydroxyazetidin-1-yl)ethyl]carbamate; trifluoroacetic acid]",10 to 20,–,–,20 to 30,–
"COc1ccc(C[C@H]2NC[C@H](O)[C@H]2OC(=O)NCCN2CCC3(CCC3)C2)cc1 [V187641, (2R,3S,4S)-4-hydroxy-2-[(4-methoxyphenyl)methyl]pyrrolidin-3-yl N-(2-{6-azaspiro[3.4]octan-6-yl}ethyl)carbamate]",–,–,–,10 to 20,–
